Laboratory results taken from publication PMC8474115 (Journal of Medicinal Chemistry, 2021).
Where a name gives a salt, the structure may show the parent alone. Read-outs that look alike come from different tables or passages of the source.

What was measured:
Experiment in all cases: Eurofins SafetyScreen panel
Type in all cases: binding
[1] = molecular target: T1, Tachykinin NK1 (Homo sapiens, UniProt P25103)
T1 construct: Eurofins (contract assay)

[2] = molecular target: T2, GABAB1A (Homo sapiens, UniProt Q9UBS5)
T2 construct: purchased Eurofins (Panlabs) SafetyScreen87 Panel
T2 sequence (Q9UBS5 15-961 limits assumed): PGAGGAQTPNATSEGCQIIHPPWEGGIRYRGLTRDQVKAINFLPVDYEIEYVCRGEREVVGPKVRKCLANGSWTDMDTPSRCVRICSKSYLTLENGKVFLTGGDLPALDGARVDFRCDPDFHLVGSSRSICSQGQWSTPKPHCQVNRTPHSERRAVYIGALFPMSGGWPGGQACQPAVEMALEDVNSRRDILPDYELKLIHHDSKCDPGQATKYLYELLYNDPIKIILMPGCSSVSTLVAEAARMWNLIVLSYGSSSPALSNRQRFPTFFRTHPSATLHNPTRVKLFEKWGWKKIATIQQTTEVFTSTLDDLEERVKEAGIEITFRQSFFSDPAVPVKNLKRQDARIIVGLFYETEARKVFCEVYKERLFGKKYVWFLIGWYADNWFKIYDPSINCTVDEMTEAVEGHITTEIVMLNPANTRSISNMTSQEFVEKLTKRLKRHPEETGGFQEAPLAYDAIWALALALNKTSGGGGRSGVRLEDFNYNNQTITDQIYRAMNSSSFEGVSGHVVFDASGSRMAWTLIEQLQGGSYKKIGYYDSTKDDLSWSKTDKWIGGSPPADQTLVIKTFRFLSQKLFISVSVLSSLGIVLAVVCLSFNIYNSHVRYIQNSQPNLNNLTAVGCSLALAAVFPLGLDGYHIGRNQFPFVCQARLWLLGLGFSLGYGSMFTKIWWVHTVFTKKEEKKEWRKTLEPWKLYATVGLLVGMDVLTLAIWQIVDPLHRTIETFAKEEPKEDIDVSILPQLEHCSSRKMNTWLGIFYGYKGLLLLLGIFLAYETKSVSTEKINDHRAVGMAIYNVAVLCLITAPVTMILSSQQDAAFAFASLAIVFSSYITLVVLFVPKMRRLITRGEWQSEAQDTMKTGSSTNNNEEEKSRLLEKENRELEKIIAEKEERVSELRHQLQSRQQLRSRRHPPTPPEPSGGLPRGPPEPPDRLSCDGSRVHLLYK
T2 sequence (O75899 42-941 partner): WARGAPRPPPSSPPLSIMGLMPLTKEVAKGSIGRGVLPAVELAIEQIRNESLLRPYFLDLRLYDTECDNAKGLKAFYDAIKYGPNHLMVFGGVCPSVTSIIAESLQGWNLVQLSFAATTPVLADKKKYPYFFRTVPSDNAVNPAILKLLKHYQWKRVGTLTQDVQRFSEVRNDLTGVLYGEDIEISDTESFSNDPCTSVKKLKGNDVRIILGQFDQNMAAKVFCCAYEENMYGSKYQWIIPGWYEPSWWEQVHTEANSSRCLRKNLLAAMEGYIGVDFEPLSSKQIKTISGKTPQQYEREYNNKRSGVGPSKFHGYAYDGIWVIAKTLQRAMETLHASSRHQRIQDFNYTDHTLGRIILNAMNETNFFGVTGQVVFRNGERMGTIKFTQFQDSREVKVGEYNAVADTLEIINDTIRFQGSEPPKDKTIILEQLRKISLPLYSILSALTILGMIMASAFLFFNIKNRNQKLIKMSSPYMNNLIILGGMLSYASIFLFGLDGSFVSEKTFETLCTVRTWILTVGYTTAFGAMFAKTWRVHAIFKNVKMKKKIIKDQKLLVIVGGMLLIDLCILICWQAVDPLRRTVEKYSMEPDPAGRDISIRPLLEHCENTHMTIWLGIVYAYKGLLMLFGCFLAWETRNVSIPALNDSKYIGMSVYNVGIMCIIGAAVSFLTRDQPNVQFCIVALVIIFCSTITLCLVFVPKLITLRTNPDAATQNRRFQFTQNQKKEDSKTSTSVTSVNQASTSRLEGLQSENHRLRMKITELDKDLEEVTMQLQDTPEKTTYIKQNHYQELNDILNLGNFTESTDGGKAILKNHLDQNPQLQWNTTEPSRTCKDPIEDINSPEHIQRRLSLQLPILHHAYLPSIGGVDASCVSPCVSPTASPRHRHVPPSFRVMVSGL

[3] = molecular target: T3, Dopamine D3 (Homo sapiens, UniProt P35462)
T3 construct: Eurofins (contract screening) 219800
T3 sequence (P35462 whole entry): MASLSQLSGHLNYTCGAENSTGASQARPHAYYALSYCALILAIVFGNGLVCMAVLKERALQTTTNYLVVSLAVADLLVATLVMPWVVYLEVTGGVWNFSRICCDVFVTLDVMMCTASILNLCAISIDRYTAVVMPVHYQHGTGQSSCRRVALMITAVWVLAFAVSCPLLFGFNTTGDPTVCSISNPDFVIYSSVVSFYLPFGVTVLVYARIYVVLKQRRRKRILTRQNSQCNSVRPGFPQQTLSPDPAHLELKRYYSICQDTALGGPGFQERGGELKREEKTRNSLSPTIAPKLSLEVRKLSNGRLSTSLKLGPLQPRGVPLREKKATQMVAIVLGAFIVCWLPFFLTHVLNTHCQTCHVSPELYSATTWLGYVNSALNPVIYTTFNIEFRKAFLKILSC

[4] = molecular target: T4, GABA Transporter (Rattus norvegicus, UniProt P23978)
T4 construct: Eurofins (contract assay)

[5] = molecular target: T5, Progesterone PR-B (Homo sapiens, UniProt P06401)
T5 construct: Eurofins (contract assay)
T5 sequence (P06401 whole entry): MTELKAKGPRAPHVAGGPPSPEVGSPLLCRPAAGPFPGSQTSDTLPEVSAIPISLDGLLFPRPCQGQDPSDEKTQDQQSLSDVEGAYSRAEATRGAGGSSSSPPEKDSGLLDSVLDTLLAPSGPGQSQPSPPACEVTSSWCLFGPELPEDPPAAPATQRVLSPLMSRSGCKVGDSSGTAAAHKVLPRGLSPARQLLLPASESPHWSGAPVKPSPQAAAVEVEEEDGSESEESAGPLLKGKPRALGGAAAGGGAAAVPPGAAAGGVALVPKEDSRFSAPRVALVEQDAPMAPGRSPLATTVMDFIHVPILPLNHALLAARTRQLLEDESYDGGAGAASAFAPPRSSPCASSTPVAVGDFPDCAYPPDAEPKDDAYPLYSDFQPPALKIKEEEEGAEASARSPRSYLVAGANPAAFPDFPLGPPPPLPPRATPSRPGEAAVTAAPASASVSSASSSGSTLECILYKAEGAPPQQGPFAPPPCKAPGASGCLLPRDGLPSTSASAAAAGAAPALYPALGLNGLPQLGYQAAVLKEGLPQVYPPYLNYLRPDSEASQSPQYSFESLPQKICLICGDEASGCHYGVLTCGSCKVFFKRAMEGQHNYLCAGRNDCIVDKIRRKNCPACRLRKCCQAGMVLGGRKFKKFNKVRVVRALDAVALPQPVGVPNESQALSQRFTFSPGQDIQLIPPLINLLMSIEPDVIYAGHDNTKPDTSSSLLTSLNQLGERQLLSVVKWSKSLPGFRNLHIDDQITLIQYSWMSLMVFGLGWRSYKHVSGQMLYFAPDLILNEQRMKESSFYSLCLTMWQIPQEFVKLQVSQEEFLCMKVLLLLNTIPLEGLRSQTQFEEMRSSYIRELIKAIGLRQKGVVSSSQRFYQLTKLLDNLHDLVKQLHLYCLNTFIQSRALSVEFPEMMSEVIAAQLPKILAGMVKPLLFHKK

T1 sequence (P25103 whole entry): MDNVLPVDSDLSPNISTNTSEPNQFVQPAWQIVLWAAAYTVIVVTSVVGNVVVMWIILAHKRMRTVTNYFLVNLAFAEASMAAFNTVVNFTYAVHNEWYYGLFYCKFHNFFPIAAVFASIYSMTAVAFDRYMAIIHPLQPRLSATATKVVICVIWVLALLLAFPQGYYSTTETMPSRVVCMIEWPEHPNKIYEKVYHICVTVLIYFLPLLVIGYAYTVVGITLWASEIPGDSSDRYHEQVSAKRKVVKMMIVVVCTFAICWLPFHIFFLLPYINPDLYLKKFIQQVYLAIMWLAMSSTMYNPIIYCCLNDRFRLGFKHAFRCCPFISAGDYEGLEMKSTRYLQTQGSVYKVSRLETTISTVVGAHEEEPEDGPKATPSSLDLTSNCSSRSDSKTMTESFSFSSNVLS

`O=S(=O)(c1cccc(F)c1)n1ccc2c(N3CCNCC3)nc3ccccc3c21` [FPPQ, 1-[(3-Fluorophenyl)sulfonyl]-4-(piperazin-1-yl)-1H-pyrrolo[3,2-c]quinoline dihydrochloride] gave an IC50 [1] of 13.7 µM, a Ki [1] of 9.92 µM and an inhibition at 0.1 µM ([1]; 0.1 μM) of 0%. For the same compound, the inhibition at 1 µM ([1]; 1 μM) was 10%, the inhibition at 10 µM [1] was 40% and the inhibition at 10 µM ([1]; additional batch) was 58%. The inhibition at 100 µM ([1]; 100 μM) was 92%, the inhibition at 10 µM [2] was 13% and the IC50 [3] was 0.63 µM. The Ki [3] was 0.21 µM, the inhibition at 0.01 µM ([3]; read-out: %inh, 10 nM) was -2% and the inhibition at 0.1 µM ([3]; read-out: %inh, 0.1 μM) was 14%. It also gave an inhibition at 1 µM ([3]; read-out: %inh, 1 μM) of 63%, an inhibition at 10 µM ([3]; read-out: %inh, 10 μM) of 89% and an inhibition at 10 µM ([3]; read-out: %inh, 10 μM, additional batch) of 90%. The inhibition at 10 µM [4] was 3% and the inhibition at 10 µM [5] was 21%.
